Measured values: patent US20210330611A1, “THERAPY FOR NEUROLOGICAL DISEASES/DISORDERS” (priority 2020, published 2021)
Where a name gives a salt, the structure may show the parent alone. Read-outs that look alike come from different tables or passages of the source.

How the values were obtained:
[1] = system: fibrin- and LPS-induced microglia activation; experiment: cells; type: cell-based, rat; details: for inhibition at 10 µM: Rattus norvegicus
in vitro [2] = details: rat, Cell Toxicity IC50 (uM) [cFib assay]
primary rat microglia [3] = details: rat
in vitro [4] = details: rat
[5] = system: LPS-induced microglia activation; experiment: Image-based assay of LPS-induced microglia activation (HTS and dose response); type: cell-based, rat; details: Rattus norvegicus, Microglia; for inhibition at 10 µM: read-out: LPS % inhibition
[6] = system: fibrin-induced microglia activation; experiment: Image-based assay of fibrin-induced microglia activation (HTS and dose response); type: cell-based, rat; details: Rattus norvegicus, Microglia; for inhibition at 10 µM: read-out: Fibrin % inhibition
primary rat microglia [7] = details: rat; remark: listed apart in the source
[8] = Microglia, read-out: Cherry-picked Hit (Suppl. Table 7)
[9] = read-out: LPS IC50 (uM) (Suppl. Table 7)
[10] = read-out: Fibrin IC50 (uM) (Suppl. Table 7)
[11] = HTS of 1907 compounds, quadrant by fibrin and LPS inhibition
[12] = Microglia, HTS hit classification, read-out: Hit
[13] = hit classification in microglia HTS, read-out: Cherry-picked Hit (Suppl. Table 7)
[14] = quadrant by fibrin and LPS inhibition in HTS of 1907 compounds
[15] = 48 h, Table 1, dose response 0.001-20 μM, triplicates, primary rat microglia, 48 h, read-out: LPS IC50
[16] = 48 h, primary microglia HTS, LPS stimulation, increased cell size (>800 μm^2) as marker of activation
[17] = LPS-induced microglia activation, dose response, read-out: LPS IC50 (uM) (Suppl. Table 7)
[18] = dose response, LPS-induced microglia activation, read-out: LPS IC50
[19] = 48 h, Table 1, dose response 0.001-20 μM, triplicates, primary rat microglia, 48 h, read-out: Fibrin IC50
[20] = dose response, fibrin-induced microglia activation, read-out: Fibrin IC50
[21] = fibrin-induced microglia activation, dose response, read-out: Fibrin IC50 (uM) (Suppl. Table 7)
[22] = primary microglia HTS, fibrin stimulation, increased cell size (>800 μm^2) as marker of activation
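Throughout, for Fibrin % cell toxicity: share of dead cells sized under 150 µm2 at 10 µM in fibrin-stimulated microglia HTS.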

| Structure (SMILES) | Quadrant (FIG. 5b) [1] | inhibition at 10 µM [1, 8] | inhibition at 10 µM ([1]; Microglia, read-out: Hit) | IC50 (in vitro [2]) | Fibrin % cell toxicity (primary rat microglia [3]) | IC50 (in vitro [4]) | inhibition at 10 µM ([5]; 48 h) | IC50 ([5]; 48 h, read-out: LPS IC50) | IC50 ([5]; read-out: LPS IC50 (uM)) | IC50 [5, 9] | IC50 ([6]; 48 h, read-out: Fibrin IC50) | inhibition at 10 µM [6] | IC50 ([6]; read-out: Fibrin IC50 (uM)) | IC50 [6, 10] | LPS % cell toxicity (primary rat microglia [7]) | Quadrant (FIG. 5b) [1, 11] | inhibition at 10 µM [1, 12] | inhibition at 10 µM [1, 13] | Quadrant (FIG. 5b) ([1]; Table 1, screen at 10 μM) | Quadrant (FIG. 5b) [1, 14] | other results |
| --- | --- | --- | --- | --- | --- | --- | --- | --- | --- | --- | --- | --- | --- | --- | --- | --- | --- | --- | --- | --- | --- |
| CNCCC=C1c2ccccc2CCc2ccccc21 [Nortriptyline hydrochloride, reference compound] | Q2 | > 50% | > 50% | 20 µM | 2% | 10 µM | 114% | 3 µM | 3 µM | 3 µM | 13 µM | 98% | 13 µM | 13 µM | 81% | – | – | – | – | – | – |
| C=C(CC)C(=O)c1ccc(OCC(=O)O)c(Cl)c1Cl [Ethacrynic acid, reference compound] | – | – | – | – | 2% | > 20 µM | – | – | – | – | – | – | – | – | 1% | Q3 | > 50% | > 50% | Q3 | Q3 | IC50 (in vitro [2]; cFib assay): > 20 µM; IC50 [5, 15]: > 20 µM; inhibition at 10 µM [5, 16]: 17%; IC50 [5, 17]: > 20 µM; IC50 [5, 18]: > 20 µM; IC50 [6, 19]: > 20 µM; IC50 [6, 20]: > 20 µM; IC50 [6, 21]: > 20 µM; inhibition at 10 µM [6, 22]: 57% |
| CC(C)(C)NC(=O)[C@@H]1C[C@@H]2CCCC[C@@H]2CN1C[C@@H](O)[C@H](Cc1ccccc1)NC(=O)[C@H](CC(N)=O)NC(=O)c1ccc2ccccc2n1 [Saquinavir, reference compound] | – | – | – | – | 1% | > 20 µM | – | – | – | – | – | – | – | – | 1% | Q2 | > 50% | > 50% | Q2 | Q2 | IC50 (in vitro [2]; cFib assay): > 20 µM; IC50 [5, 15]: > 20 µM; inhibition at 10 µM [5, 16]: 56%; IC50 [5, 17]: > 20 µM; IC50 [5, 18]: > 20 µM; IC50 [6, 19]: > 20 µM; IC50 [6, 20]: > 20 µM; IC50 [6, 21]: > 20 µM; inhibition at 10 µM [6, 22]: 51% |
| COc1ccc(OC)c(C(O)CNC(=O)CN)c1 (stereo not shown) [Midodrine hydrochloride, reference compound] | Q2 | > 50% | > 50% | > 20 µM | 3% | > 20 µM | 52% | > 20 µM | > 20 µM | > 20 µM | > 20 µM | 95% | > 20 µM | > 20 µM | 1% | – | – | – | – | – | – |
